Results reported in patent publication US20200163938A1, “PHARMACEUTICAL COMPOSITION COMPRISING IRON CHELATOR EXHIBITING ANTITUMOR ACTIVITY, ANTIBACTERIAL ACTIVITY AND/OR ANTIVIRUS ACTIVITY, AND HAVING REDUCED SIDE EFFECTS” (priority 2017, published 2020).
“And” between values parts separate entries of the source, which are not always exact repeats. Equal values may be shown once. “Also recorded” adds a separate entry of the source. Where a name gives a salt, the structure may show the parent alone. Read-outs that look alike come from different tables or passages of the source.

Key:
[1] = format: in vivo; parameters: NEFA: unit not given here; details: for Body weight: rats
Description: To a negative control group (saline administration; n=6), the same amount of saline was administered. On day 14 after administration, determining life or death, measurement of body weight, physical items (respiration, body temperature, behavior, etc.) were observed. Moreover, blood samples were taken from each group, and the right kidneys and the livers were removed. Results were as depicted in FIG. 5A to 5C and Tables 4 to 9.

HCT116 cells = assay: Apoptosis induction, TUNEL staining; format: cell-based, human; details: 6.5 µg/mL, 48 hours, FIG. 11B
Description: (§1) Furthermore, the apoptosis-inducing effects of the chelating agents of test groups 6 and 10 on tumors were confirmed. First, 100 μg/mL of the chelating agent of test group 6 or 50 μg/mL of the chelating agent of test group 10 was added to HSC-2 cells in a culture solution. After 48 hours of reaction, TUNEL Assay was carried out. Specifically, apoptosis induction was evaluated by the TUNEL staining method using a MK500 in situ Apoptosis Detection Kit (Takara Bio Inc.).
(§2) Similarly, the apoptosis-inducing effects of the chelating agent of test group 6 or 10 on HCT116 cells were confirmed. 10 μg/mL of the chelating agent of test group 6 was added and 6.5 µg/mL of the chelating agent of test group 10 was added to the cells. After 48 hours of reaction, TUNEL staining was carried out similarly to the above.

A549 cells [2] = assay: Apoptosis induction, TUNEL staining; format: cell-based, human; details: 50 μg/mL, 48 hours, FIG. 11C
Description: as §1
as §2, with “Further, the” for “Similarly, the”, “on A549” for “on HCT116”, “confirmed. 100” for “confirmed. 10”, “and 50 μg/mL” for “and 6.5 µg/mL”

[3] = system: human influenza virus PR8 [A/PUERTORICO/8/34 (H1N1)]; assay: Suppression of viral infection of MDCK cells; format: cell-based; details: 48 hours
Description: MDCK cells (canine renal tubule epithelial cells) were infected with a human influenza virus, and then an effect of suppressing the viral infection of MDCK cells was confirmed. Specifically, PR8 [A/PUERTORICO/8/34 (H1N1)] was adjusted at TCID50=2.81×10^6/mL as the influenza virus, the viral liquid and an equivalent amount of the chelating agent of test group 10 (concentration: 100 μg/mL, 250 μg/mL, 500 μg/mL, or 1000 μg/mL) were mixed and then left to stand at room temperature for 30 minutes. The above-prepared viral liquid was added to MDCK cells. After 48 hours, cells were observed, living cells (specifically, non-infected cells) remaining on the bottom of the culture dish were observed under a microscope. Results were as depicted in FIG. 16A.

P. gingivalis Pg W83 = assay: Antibacterial activity, turbidity and ATP assay; format: cell-based, Porphyromonas gingivalis; details: anaerobic culture 37° C., 18 hours, OD595 nm; FIG. 8
Description: A bacterial strain of one of periodontopathic bacteria, gram-negative bacillus, P. gingivalis, used herein was Pg W83. With the use of a liquid medium prepared by adding the chelating agent of each test group to a modified GAM bouillon medium, anaerobic culture (Anaeropack.anaerobic) was performed at 37° C. for 18 hours. Turbidity was found from optical density (OD595 nm). Results were as depicted in FIG. 8.

[4] = system: human breast cancer cell line MCF-7; assay: Antitumor effects, cell viability (XTT method); format: cell-based; details: FIG. 9
Description: (§3) The antitumor effects of the chelating agents of test groups 1 to 10 on each of human lung cancer cell line A549, human liver cancer cell line PLC, and human colon adenocarcinoma cell line HCT116 were confirmed. A549 cells or PLC cells were seeded at 3000 cells/well, and HCT116 cells were seeded at 6000 cells/well. After 24 hours, the fetal bovine serum (FBS) concentration was changed from 10% to 1%, each compound of the test groups 1 to 10 was introduced into medium. Cell viability was confirmed after 48 hours by the Trypan blue method, or, cell viability was confirmed after 48 hours by performing medium exchange and then after 24 hours by performing the XTT method. Deferoxamine mesylate (Desferal (Trademark)) was used as a positive control. Results are as depicted in FIGS. 1A, 1B, 2 and 3.
(§4) Moreover, similarly to the above experiment on antitumor effects, the antitumor effects of the chelating agent of test group 6 or 10 on each of human breast cancer cell line MCF-7 and human oral squamous cell carcinoma HSC-2 were confirmed.

[5] = system: human oral squamous cell carcinoma HSC-2; assay: Antitumor effects, cell viability (XTT method); format: cell-based; details: FIG. 10
Description: as §3, §4

[6] = system: subcutaneously-transplanted HCT116 cells; format: in vivo, nude mice (BALB/c nu/nu)
Description: Next, the antitumor effects of the chelating agents of test groups 6 and 10 on HCT116-cell subcutaneous transplantation model mice, into which HCT116 cells had been subcutaneously transplanted, were confirmed. Mice prepared herein were nude mice (BALB/c nu/nu, 6 weeks old: Clea Japan Inc.). HCT116 cells were adjusted at 3×10^6/mouse, and then mixed with Matrigel (BD Biosciences) at 1:1. The thus obtained mixture was administered to mice, thereby preparing subcutaneous tumors. The dosage was 200 mg/kg/day (5 times/week administration). […] Tissue sections of HCT116 cells subcutaneously transplanted into the test group 10 administration group were prepared, and then hematoxylin-eosin (HE) staining, and TUNEL staining were performed by the above-mentioned method.

HSC-2 cells [7] = assay: Western blot of apoptosis-related factors; format: cell-based, human; details: HSC-2 cell lysate; FIG. 12
Description: (§5) The cell lysate of each type of cells treated with the chelating agents of test groups 6 and 10 was Western-blotted, and then an increase or a decrease in apoptosis-related factors in treated cells was confirmed using the indicated antibodies. […] Concentration-dependent apoptosis induction was also biochemically confirmed.

MCF-7 cells = assay: Western blot of apoptosis-related factors; format: cell-based, human; details: MCF-7 cell lysate; FIG. 12
Description: as §5

A549 cells [8] = assay: Western blot of apoptosis-related factors; format: cell-based, human; details: A549 cell lysate; FIG. 12
Description: as §5

HSC-2 cells [9] = assay: Apoptosis induction, TUNEL staining; format: cell-based, human; details: 50 μg/mL, 48 hours, FIG. 11A
Description: as §1

[10] = mouse, in vivo, 300 mg/kg
Description: To each of 6-week-old Jcl: ICR mice divided into a test group 6 administration group (n=3), a test group 9 administration group (n=3), and a test group 10 administration group (n=3), the chelating agent of each test group was administered at a dose of 300 mg/kg body weight via tail vein. To a positive control group (administration; n=4), deferoxamine mesylate was administered at a dose of 300 mg/kg body weight via tail vein. On day 7 after administration, determining life or death, and physical items (respiration, body temperature, behavior, etc.) were observed.

[11] = rat blood, oral 200 mg/kg, day 14
[12] = rat blood, oral 1000 mg/kg, day 14
[13] = rat blood, oral 1000 mg/kg, day 14, 1000 mg/kg

**Q.** What does the source list for `Cl.O=C(O)[C@H](Cc1c[nH]cn1)NCc1ccc(O)c(O)c1O` [Test group 10]?
**A.** ALP [1, 11]: 603 IU/L; ALT [1, 11]: 33 IU/L; AST [1, 11]: 61 IU/L; BUN [1, 11]: 22.5 mg/dL; CRE [1, 11]: 0.37 mg/dL; Ca [1, 11]: 11.2 mg/dL; GLU [1, 11]: 278 mg/dL; K [1, 11]: 6.1 mEQ/L; LD [1, 11]: 53 IU/L; NEFA [1, 11]: 111; Na [1, 11]: 146 mEQ/L; T-Bil [1, 11]: 0.06 mg/dL; TP [1, 11]: 5.5 g/dL; ALT [1, 12]: 25 IU/L; CRE [1, 12]: 0.36 mg/dL; ALP [1, 13]: 592 IU/L and 618 IU/L; AST [1, 13]: 56 IU/L and 90 IU/L; BUN [1, 13]: 24.6 mg/dL and 22.8 mg/dL; Ca [1, 13]: 10.6 mg/dL and 10.5 mg/dL; GLU [1, 13]: 259 mg/dL and 187 mg/dL; K [1, 13]: 4.8 mEQ/L and 4.9 mEQ/L; Na [1, 13]: 142 mEQ/L and 143 mEQ/L; TP [1, 13]: 5.4 g/dL and 5.7 g/dL; Body weight ([1]; oral 200 mg/kg): 170.83 g; Body weight ([1]; oral 1000 mg/kg, 1000 mg/kg): 170.73 g and 185.29 g; apoptosis-inducing effects (TUNEL staining) (HCT116 cells): green-stained cells indicating apoptosis were confirmed; apoptosis-inducing effects (TUNEL staining) (A549 cells [2]): green-stained cells (FITC positive cells) indicating apoptosis were confirmed; effect of suppressing viral infection ([3]; 500 μg/mL): observed to have the effect of suppressing viral infection; antimicrobial effects on P. gingivalis (turbidity) (P. gingivalis Pg W83): exhibited antimicrobial effects; antitumor effects on MCF-7 (cell viability) [4]: exhibit antitumor effects; antitumor effects on HSC-2 (cell viability) [5]: exhibit antitumor effects; in vivo apoptosis induction in tumor tissue sections (TUNEL staining) ([6]; HCT116 subcutaneous tumor tissue, 200 mg/kg/day, FIG. 13B): FITC-derived green-stained cell images indicating apoptosis induction were confirmed; body weight change ([6]; mouse, in vivo, 200 mg/kg/day): no change in body weight was observed; in vivo antitumor effects ([6]; subcutaneously-transplanted HCT116 cells, nude mice, 200 mg/kg/day (5 times/week), FIGS. 13A, 14): exhibited antitumor effects; PARP cleaved fragments and caspase-3-cleaved fragments (Western blot) (HSC-2 cells [7]): PARP cleaved fragments and caspase-3-cleaved fragments were confirmed; PARP cleaved fragments and caspase-3-cleaved fragments (Western blot) (MCF-7 cells): PARP cleaved fragments and caspase-3-cleaved fragments were confirmed; PARP cleaved fragments and caspase-3-cleaved fragments (Western blot) (A549 cells [8]): PARP cleaved fragments and caspase-3-cleaved fragments were confirmed; apoptosis-inducing effects (TUNEL staining) (HSC-2 cells [9]): green-stained cells indicating apoptosis were confirmed

**Q.** Which results are given for `CC(=O)N(O)CCCCCNC(=O)CCC(=O)N(O)CCCCCNC(=O)CCC(=O)N(O)CCCCCN` [deferoxamine mesylate, Deferoxamine mesylate]?
**A.** life or death [10]: died immediately after administration; effect of suppressing viral infection ([3]; 500 μg/mL or 1000 μg/mL, listed as Desferal): the effect of suppressing viral infection was not observed; also recorded: unable to inhibit viral infection
